Measured values: patent US20110306621A1, “ACYLGUANIDINE DERIVATIVES” (priority 2009, published 2011)
pKi: −log10 of the molar value. Structures can show the parent of a compound that is named as a salt.

target: T1, human 5-HT5A receptor (Homo sapiens, UniProt P47898); assay: Test on a human 5-HT5A receptor binding inhibition ([3H]5-CT); settings: membrane from HEK293 cells for forced expression of human 5-HT5A receptor; Ki calculated from IC50 and Kd of [3H]5-CT (4.95 nM)
T1 construct: expressed in transfected cells; membranes used
Method: The ORF (open reading frame; protein coding region) of a human 5-HT5A receptor (Genbank AF498985) was cloned from a human hippocampus cDNA library, and then inserted into a pCR2.1 vector (Invitrogen), and Escherichia coli containing the plasmid was cultured in a large amount. Next, the full-length cDNA sequence of the human 5-HT5A receptor was analyzed, and recombined into a pcDNA3.1 vector (Invitrogen) as an expression vector and cultured in a large amount. HEK293 established cells (ATCC) derived from the human fetal kidney were seeded, the expression plasmid (1 μg) obtained above were added thereto with LIPOFECTAMINE 2000 (Invitrogen; 2 μl), the gene was transfected into HEK293 cells, and the expression cells were screened with a drug-resistant marker, Geneticin (G418 sulfate 500 μg/ml; Kanto Chemical Co., Inc.). Thus prepared recombinant cells which expressed the gene were cultured in a medium containing D-MEM (Dulbecco's modified eagle medium, Sigma), 10% FCS (Fetal calf serum: fetal bovine serum), 1% Pc./Sm (Penicillin/Streptomycin, Invitrogen), and 500 μg/ml G418 for 3 days. These experimental operations followed a manual for gene operation experiment and an instruction appended in a reagent, and the like, such as a known method (Sambrook, J. et al, Molecular Cloning-A Laboratory Manual”, Cold Spring Harabor laboratory, NY, 1989).
HEK293 cells for forced expressions of a human 5-HT5A receptor were cultured in a F500 plate, and scraped with a scraper. After centrifugation, the precipitate was collected, and an incubation buffer (50 mM Tris (HCl) (pH 7.4), 10 mM MgSO4, and 0.5 mM EDTA (ethylenediamine tetraacetic acid)) was added thereto. After homogenization, it was further centrifuged, and the incubation buffer was added to the precipitate, followed by thoroughly suspending. The operation was repeated, and protein concentration was measured, thereby completing preparation of the membrane.
A solution of the compound to be tested and 100 μM 5-CT (5-carboxamidetriptamine) in DMSO was added to a 96-well plate at 2 μl/well, suspended in an incubation buffer, and a membrane from HEK293 cells for forced expressions of a human 5-HT5A receptor prepared at 200 μg/ml was added at 100 μl/well. After incubation at room temperature for 15 minutes, a [^3H]5-CT solution (2 nM [^3H]5-CT, incubation buffer) was added thereto at 100 μl/well.
Separately, 100 μl of the solution was distributed into a liquid scintillation vial, and 2 ml of Aquasol II (registered trademark) was added thereto, followed by stirring. Then, radioactivity was measured by a liquid scintillation counter. It was incubated at 37° C. for 60 minutes. The reaction mixture was sucked into 96-well GF/C filter plate that had been pre-treated with 0.2% polyethyleneimine, and washed six times with an ice-cooled, 50 mM Tris (pH 7.5) buffer. The GF/C filter plate was dried.
Microscint TMPS (registered trademark) was added thereto at 40 μl/well. Radioactivity remaining on the GF/C filter plate was measured by a top counter.
The [^3H]5-CT binding inhibiting activity by the compound to be tested in each experiment was determined as an IC50 value with a radioactivity upon addition of DMSO alone being 0% inhibition, and a radioactivity upon addition of 1 μM 5-CT being 100% inhibition. Separately, Ki values were calculated from the Kd value of the [^3H]5-CT determined from Scatchard analysis, by the following equation.
Ki=IC50 (1+Concentraion of ligand added/Kd (4.95 nM))

T1 sequence (P47898 whole entry): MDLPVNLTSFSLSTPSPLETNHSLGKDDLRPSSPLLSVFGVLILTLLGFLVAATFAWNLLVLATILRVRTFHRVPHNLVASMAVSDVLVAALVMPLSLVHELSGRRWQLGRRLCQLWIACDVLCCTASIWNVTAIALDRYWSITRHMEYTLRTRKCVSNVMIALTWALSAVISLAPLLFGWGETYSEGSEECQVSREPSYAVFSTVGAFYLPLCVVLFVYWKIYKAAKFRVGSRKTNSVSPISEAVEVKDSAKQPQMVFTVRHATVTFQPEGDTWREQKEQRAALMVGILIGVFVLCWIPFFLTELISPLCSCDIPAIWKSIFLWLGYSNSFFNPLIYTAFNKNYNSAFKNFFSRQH

SMILES	pKi
NC(N)=NC(=O)c1ccc2cccc(-c3c(F)cccc3Cl)c2c1 [Example 1, 8-(2-chloro-6-fluorophenyl)-N-(diaminomethylene)-2-naphthamide hydrochloride]	9.02
NC(N)=NC(=O)c1ccc2cccc(-c3cc(C(F)(F)F)ncn3)c2c1 [Example 183]	7.52 to 8.52
NC(N)=NC(=O)c1ccc2cccc(-c3ccnc(Cl)c3F)c2c1 [Example 172]	7.52 to 8.52
NC(N)=NC(=O)c1ccc2cccc(-c3cc(Cl)ncc3F)c2c1 [Example 197]	8.52 to 9.52
N#Cc1sccc1-c1cccc2ccc(C(=O)N=C(N)N)cc12 [Example 51]	7.52 to 8.52
NC(N)=NC(=O)c1ccc2cccc(-c3cccnc3)c2c1 [Example 21]	7.52 to 8.52
NC(N)=NC(=O)c1ccc2ccc(Cl)c(-c3ccncc3)c2c1 [Example 147]	8.52 to 9.52
NC(=O)c1cc(-c2cccc3ccc(C(=O)N=C(N)N)cc23)ccn1 [Example 171]	6.52 to 7.52
COc1cc(F)ccc1-c1cccc2ccc(C(=O)N=C(N)N)cc12 [Example 4]	8.52 to 9.52
Cc1ccsc1-c1cccc2ccc(C(=O)N=C(N)N)cc12 [Example 48]	8.52 to 9.52
N#Cc1cc(F)ccc1-c1cccc2ccc(C(=O)N=C(N)N)cc12 [Example 16]	7.52 to 8.52
CCOc1ncc(Cl)c(-c2cccc3ccc(C(=O)N=C(N)N)cc23)c1Cl [Example 67]	8.52 to 9.52
COc1cc(-c2cccc3ccc(C(=O)N=C(N)N)cc23)ccn1 [Example 112]	7.52 to 8.52
NC(N)=NC(=O)c1ccc2cccc(-c3ccc(F)c4c3C(=O)CC4)c2c1 [Example 126]	6.52 to 7.52
Cc1nc(-c2ccccc2)sc1-c1cccc2ccc(C(=O)N=C(N)N)cc12 [Example 122]	7.52 to 8.52
N#Cc1ccc(F)cc1-c1cccc2ccc(C(=O)N=C(N)N)cc12 [Example 39]	6.52 to 7.52
NC(N)=NC(=O)c1ccc2cccc(-c3cccc4ccncc34)c2c1 [Example 167]	8.52 to 9.52
COc1ncccc1-c1c(Cl)ccc2ccc(C(=O)N=C(N)N)cc12 [Example 146]	8.52 to 9.52
NC(N)=NC(=O)c1ccc2cccc(-c3cccnc3Cl)c2c1 [Example 19]	7.52 to 8.52
COc1ccccc1-c1c(Cl)cc(Cl)c2ccc(C(=O)N=C(N)N)cc12 [Example 136]	7.52 to 8.52

SMILES	pKi
NC(N)=NC(=O)c1ccc2cccc(-c3ccc(F)cc3F)c2c1 [Example 35]	8.52 to 9.52
NC(N)=NC(=O)c1ccc2ccc(F)c(-c3ccncc3F)c2c1 [Example 113]	8.52 to 9.52
NC(N)=NC(=O)c1ccc2cccc(-c3c(O)ccc(F)c3F)c2c1 [Example 117]	8.52 to 9.52
NC(N)=NC(=O)c1ccc2ccc(Cl)c(-c3ccncc3Cl)c2c1 [Example 157]	8.52 to 9.52
NC(N)=NC(=O)c1ccc2cccc(-c3cccc4nonc34)c2c1 [Example 179]	7.52 to 8.52
COCc1cc(F)c(-c2cccc3ccc(C(=O)N=C(N)N)cc23)c(F)c1 [Example 120]	7.52 to 8.52
N#Cc1ccc(-c2c(Cl)ccc3ccc(C(=O)N=C(N)N)cc23)cc1 [Example 125]	8.52 to 9.52
NC(N)=NC(=O)c1ccc2cccc(-c3cc(Cl)cnc3F)c2c1 [Example 84]	7.52 to 8.52
NC(N)=NC(=O)c1ccc2cccc(-c3cccc4c3OCCO4)c2c1 [Example 28]	7.52 to 8.52
NC(N)=NC(=O)c1ccc2cccc(-c3cccc(F)c3O)c2c1 [Example 105]	8.52 to 9.52
Cc1nc2cccc(-c3cccc4ccc(C(=O)N=C(N)N)cc34)c2o1 [Example 144]	7.52 to 8.52
NC(N)=NC(=O)c1ccc2cccc(-c3c(F)cc(O)cc3F)c2c1 [Example 142]	8.52 to 9.52
N#Cc1cnc(-c2cccc3ccc(C(=O)N=C(N)N)cc23)c(Cl)c1 [Example 196]	7.52 to 8.52
NC(N)=NC(=O)c1ccc2cccc(-c3ccnc(C(F)(F)F)n3)c2c1 [Example 187]	7.52 to 8.52
NC(N)=NC(=O)c1ccc2cccc(-c3c(Cl)cncc3Cl)c2c1 [Example 45]	8.52 to 9.52
NC(N)=NC(=O)c1ccc2cccc(-c3cc(F)ccc3F)c2c1 [Example 68]	8.52 to 9.52
NC(N)=NC(=O)c1ccc2cccc(-c3c(F)cncc3Cl)c2c1 [Example 148]	8.52 to 9.52
NC(N)=NC(=O)c1ccc2cccc(-c3ccc(F)cc3)c2c1 [Example 88]	8.52 to 9.52
NC(N)=NC(=O)c1ccc2cccc(-c3ncc(F)cc3F)c2c1 [Example 190]	8.52 to 9.52
NC(N)=NC(=O)c1ccc2cccc(-c3cnccc3Cl)c2c1 [Example 73]	8.52 to 9.52

SMILES	pKi
Cc1nc(C)c(-c2c(F)ccc3ccc(C(=O)N=C(N)N)cc23)s1 [Example 186]	8.52 to 9.52
N#Cc1cccc(-c2cccc3ccc(C(=O)N=C(N)N)cc23)c1F [Example 80]	8.52 to 9.52
COc1c(F)cccc1-c1cccc2ccc(C(=O)N=C(N)N)cc12 [Example 27]	7.52 to 8.52
N#Cc1cccc(F)c1-c1cccc2ccc(C(=O)N=C(N)N)cc12 [Example 26]	8.52 to 9.52
N#Cc1cccnc1-c1cccc2ccc(C(=O)N=C(N)N)cc12 [Example 181]	6.52 to 7.52
N#Cc1ccc(-c2cccc3ccc(C(=O)N=C(N)N)cc23)s1 [Example 50]	8.52 to 9.52
COc1ccccc1-c1c(Cl)ccc2ccc(C(=O)N=C(N)N)cc12 [Example 124]	8.52 to 9.52
NC(N)=NC(=O)c1ccc2cccc(-c3ccncc3Cl)c2c1 [Example 44]	8.52 to 9.52
NC(N)=NC(=O)c1ccc2cccc(-c3c(F)cc(Cl)cc3F)c2c1 [Example 43]	8.52 to 9.52
COc1cc(Cl)ccc1-c1cccc2ccc(C(=O)N=C(N)N)cc12 [Example 57]	8.52 to 9.52
Cc1nc(C2CC2)sc1-c1cccc2ccc(C(=O)N=C(N)N)cc12 [Example 163]	7.52 to 8.52
NC(N)=NC(=O)c1ccc2cccc(-c3ccccc3)c2c1 [Example 87]	8.52 to 9.52
COc1ccc(-c2cccc3ccc(C(=O)N=C(N)N)cc23)cc1 [Example 90]	8.52 to 9.52
NC(N)=NC(=O)c1ccc2cccc(-c3ncc(F)cc3Cl)c2c1 [Example 169]	8.52 to 9.52
NC(N)=NC(=O)c1ccc2cccc(-c3c(F)cc(F)cc3F)c2c1 [Example 14]	8.52 to 9.52
NC(N)=NC(=O)c1ccc2cccc(-c3ccc(F)cc3Cl)c2c1 [Example 60]	8.52 to 9.52
NC(N)=NC(=O)c1ccc2cccc(-c3ccc(Cl)cc3)c2c1 [Example 89]	8.52 to 9.52
NC(N)=NC(=O)c1ccc2cccc(-c3c(O)cccc3F)c2c1 [Example 104]	8.52 to 9.52

test system: mouse in which hyperactivity was caused by methamphetamine (MAP) or MK-801; assay: Improvement effect on increase in motion induced by methamphetamine or MK-801 in mice; format: in vivo; settings: male ICR mouse; compound oral at a dose of 0.1 mg/kg; MK-801 0.3 mg/kg i.p.; motion for 60 minutes; P<0.05
Method: The improvement effect of compound of formula (I) was evaluated by measuring the quantity of motion by IR irradiation when a compound was administered to a mouse in which hyperactivity was caused by methamphetamine (hereinafter, simply referred to as “MAP”) or MK-801, known as an animal model of schizophrenia.
The animal was taken out of the breeding cage, orally administered with a compound to be tested, and then placed into a cage for breeding. After 30 minutes, the animal was put into a cage for measurement, and motion with the compound to be tested alone was measured. After 30 to 90 minutes, the animal was taken out, and intraperitoneally administered with a drug for increasing the motion (MAP; 1 mg/kg or MK-801; 0.3 mg/kg, dissolved in a physiological saline, respectively). Then, motion for a certain period of time (60 minutes) was measured by using a motion measurement device
(CompACT AMS from Muromachi Kikai Co., Ltd.) by means of an infrared sensor.
For normal mouse (a mouse administered with physiological saline) and mouse administered with a drug for increasing the motion, a Student's T test was performed for evaluation for each interval. For a mouse group administered with the compound to be tested, an assay was performed using a solvent (vehicle) group and a Dunnett's T test. […]

SMILES	inhibition of hyperactivity caused by MK-801
NC(N)=NC(=O)c1ccc2cccc(-c3c(F)cccc3Cl)c2c1 [Example 1, 8-(2-chloro-6-fluorophenyl)-N-(diaminomethylene)-2-naphthamide hydrochloride]	significantly inhibited
